Data set [1] addresses T1, Oxysterols receptor LXR-beta (Homo sapiens, UniProt P55055).
T1 sequence (P55055 whole entry): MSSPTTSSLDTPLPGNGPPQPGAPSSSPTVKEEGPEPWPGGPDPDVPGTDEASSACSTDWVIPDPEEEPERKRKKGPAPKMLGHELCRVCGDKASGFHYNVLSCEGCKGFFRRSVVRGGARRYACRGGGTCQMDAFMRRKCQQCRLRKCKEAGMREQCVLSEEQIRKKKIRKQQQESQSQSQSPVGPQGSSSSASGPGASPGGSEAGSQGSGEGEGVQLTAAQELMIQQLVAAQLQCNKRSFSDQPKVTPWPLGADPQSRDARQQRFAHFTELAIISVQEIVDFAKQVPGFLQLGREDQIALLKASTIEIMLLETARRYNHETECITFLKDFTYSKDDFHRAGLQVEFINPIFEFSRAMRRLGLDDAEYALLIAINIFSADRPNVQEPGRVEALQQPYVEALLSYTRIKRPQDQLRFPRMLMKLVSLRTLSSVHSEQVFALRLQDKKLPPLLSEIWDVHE
As to the kind of experiment: Agonist activity at human LXRbeta expressed in human SH-SY5Y cells co-transfected with Gal4-LBD after 24 hrs by luciferase reporter gene assay. It counts as functional, cell-based. (In a reporter assay the amount or activity of a reporter protein is the signal.)

In data set [2] the target is T2, Oxysterols receptor LXR-alpha (Homo sapiens, UniProt Q13133).
T2 sequence (Q13133 whole entry): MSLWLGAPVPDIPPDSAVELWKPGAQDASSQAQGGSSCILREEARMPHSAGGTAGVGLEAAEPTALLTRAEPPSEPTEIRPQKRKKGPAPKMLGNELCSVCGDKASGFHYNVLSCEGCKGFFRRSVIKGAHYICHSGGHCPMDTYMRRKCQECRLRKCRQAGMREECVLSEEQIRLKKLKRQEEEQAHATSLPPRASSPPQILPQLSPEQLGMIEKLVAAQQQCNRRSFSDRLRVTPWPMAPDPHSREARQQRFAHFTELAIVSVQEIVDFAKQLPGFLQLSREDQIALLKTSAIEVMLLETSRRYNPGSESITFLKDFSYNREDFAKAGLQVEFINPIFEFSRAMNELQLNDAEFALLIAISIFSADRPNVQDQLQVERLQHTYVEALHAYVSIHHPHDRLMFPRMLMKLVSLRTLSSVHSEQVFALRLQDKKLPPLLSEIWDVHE
As to the kind of experiment: Agonist activity at LXRalpha ligand binding domain by FRET based SRC1 recruitment assay.

The target of data set [3] is T1, Oxysterols receptor LXR-beta. Briefly: Agonist activity at LXRbeta ligand binding domain by FRET based SRC1 recruitment assay.
Data set [4] deals with T2, Oxysterols receptor LXR-alpha. Briefly: Agonist activity at human LXRalpha expressed in human SH-SY5Y cells co-transfected with Gal4-LBD after 24 hrs by luciferase reporter gene assay. It counts as functional, cell-based.
Data set [5] concerns the target T3, Oxysterols receptor LXR-beta (Homo sapiens) (UniProt P55055).
T3 sequence (whole entry): T1 sequence (P55055 whole entry)
As to the kind of experiment: Agonist activity at human LXRbeta expressed in human U2OS cells co-transfected with Gal4-LBD after 24 hrs by luciferase reporter gene assay. It is filed as functional, cell-based.

Data set [6] deals with T4, Oxysterols receptor LXR-alpha (Homo sapiens) (UniProt Q13133).
T4 sequence (whole entry): T2 sequence (Q13133 whole entry)
Briefly: Agonist activity at human LXRalpha expressed in human U2OS cells co-transfected with Gal4-LBD after 24 hrs by luciferase reporter gene assay. It counts as functional, cell-based.

Data set [7] in a line: Permeability across human Caco-2 cell membrane. It counts as ADME, cell-based. The settings on record: read-out: permeability.
Data set [8] deals with Mus musculus. As to the kind of experiment: Upregulation of SREBP-1c mRNA level in mouse liver at 30 umol/kg, po daily once after 3 days relative to control. It counts as functional.
Data set [9] deals with Mus musculus. Briefly: Upregulation of SREBP-1c mRNA level in mouse liver at 1.0 umol/kg, po daily once after 3 days relative to control. It counts as functional.
A further data set has as its system Rattus norvegicus. Briefly: Volume of distribution in po dosed rat. It is filed as ADME, organism-based. The settings on record: in vivo.
Data set [10] can be described thus: Clearance in po dosed rat. It is filed as ADME, organism-based. The note with it: in vivo.
Data set [11] is described as follows: Solubility in 0.1 M phosphate buffer at pH 7.4 at 100 uM after 24 hrs by UV-TIC. It counts as physicochemical.
A short description of data set [12]: Half life in po dosed rat. It is filed as ADME, organism-based. The note with it: in vivo.
The nature of data set [13]: Bioavailability in rat. It counts as ADME, organism-based. The note with it: in vivo.
Data set [14] has as its system Mus musculus. As to the kind of experiment: Upregulation of ABCG1 mRNA level in mouse brain homogenates at 30 umol/kg, po daily once after 3 days relative to control. It counts as functional.
Data set [15] has as its system Mus musculus. Briefly: Upregulation of ABCA1 mRNA level in mouse brain homogenates at 30 umol/kg, po daily once after 3 days relative to control. It counts as functional.

Structures are written as SMILES. In brackets after ≈: the same amount, converted by molar mass. Activity calls are given as the source filed them. A value given as a limit tells only on which side of the number the result lay.

One may read the EC50 as the concentration that produces a half-maximal response. A higher EC50 goes with weaker potency. On to `C[C@H](CC[C@@H]1OC1(C)C)[C@H]1CC[C@H]2[C@@H]3CC=C4C[C@@H](O)CC[C@]4(C)[C@H]3CC[C@]12C` [24(S),25-EPOXYCHOLESTEROL], for which the EC50 in data set [1] was found to be 400 nM; in data set [2] it was 280 nM; in [3], 286 nM.
Consider `Cc1ccc(S(=O)(=O)N(C)c2ccc(NC(=O)[C@](C)(O)C(F)(F)F)c(Cl)c2)cc1`, for which the EC50 is 5000 nM in [4], 1590 nM in data set [1], 1970 nM in [2] and 1500 nM in data set [3].
In the same order, the values of `CN(c1ccc(NC(=O)C(C)(O)C(F)(F)F)c(Cl)c1)S(=O)(=O)c1ccc(C(=O)O)cc1` (stereo not drawn) are above 30000 nM, above 30000 nM, above 100000 nM and above 100000 nM.
In the same order, the values of `COC(=O)c1ccc(S(=O)(=O)N(C)c2ccc(NC(=O)C(C)(O)C(F)(F)F)c(Cl)c2)cc1` (stereo not drawn) are 3610 nM, 3810 nM, 3100 nM and 2320 nM.
Consider `CN(c1ccc(NC(=O)[C@](C)(O)C(F)(F)F)c(Cl)c1)S(=O)(=O)c1ccccc1Cl`, for which the result in data set [5] and in data set [6] was inactive. For the same molecule, the results for the concentration for a half-maximal effect (EC50) in data set [4], in [1] and in [3] were 1820 nM, 813 nM and 626 nM, respectively.
With `CN(c1ccc(NC(=O)[C@](C)(O)C(F)(F)F)c(Cl)c1)S(=O)(=O)c1ccccc1`, the EC50 turned out to be 5000 nM in data set [4], 959 nM in data set [1], 3300 nM in [2] and 1900 nM in data set [3].
Taken in the same sequence, the figures for `C=CCN(c1ccc(NC(=O)C(C)(O)C(F)(F)F)c(Cl)c1)S(=O)(=O)c1ccccc1Cl` (stereo not drawn) were above 30000 nM, above 30000 nM, 470 nM and 580 nM.
Taken in the same sequence, the figures for `CN(c1ccc(NC(=O)C(C)(O)C(F)(F)F)c(Cl)c1)S(=O)(=O)c1ccc(CCC(=O)O)cc1` (stereo not drawn) were above 30000 nM, above 30000 nM, above 100000 nM and above 100000 nM.
In the same order, the values of `CC(O)(C(=O)Nc1ccc(N(CC2CC2)S(=O)(=O)c2ccccc2Cl)cc1Cl)C(F)(F)F` (stereo not drawn) are above 30000 nM, above 30000 nM, 1080 nM and 940 nM.
A word on the CL/F: it is the apparent clearance, not corrected for the fraction that reaches the circulation. One may read the solubility as the concentration that dissolves in the medium under given conditions. A lower solubility goes with a poorly soluble substance. The term half-life denotes the time needed for the level to fall by half in the phase considered. A lower half-life goes with fast loss. What is called bioavailability is dose-corrected exposure relative to a reference, in per cent. A lower bioavailability goes with poor availability. On to `CN(c1ccc(NC(=O)C(C)(O)C(F)(F)F)c(Cl)c1)S(=O)(=O)c1ccc(C#N)cc1` (stereo not drawn), for which the Papp in [7] worked out at 28 ×10⁻⁶ cm/s. For the same molecule, the result in data set [5] and in [6] was inactive. For the same molecule, the “fold change (FC)” value with Mus musculus [8] was found to be 1.3; in the data set with Mus musculus [9] it was 3.6; in the data set with Mus musculus [14] it was 1.3; in the data set with Mus musculus [15], 1.25. The EC50 in data set [4] turned out to be 5000 nM; in data set [1], 2700 nM; in [2] it was 3400 nM; in [3], 2600 nM. Also, in the data set on Rattus norvegicus, the Vd came to 4.1 L/kg. In addition, in [10], the CL/F was 24.6 mL/min/kg. In data set [11], this molecule showed a solubility at 24 h, 100 µM of 61 µM (≈ 28.2 µg/mL). The molecule further showed a half-life in data set [12] of 4.4 h. Further, the bioavailability in data set [13] stood at 39%.
Consider `CCN(c1ccc(NC(=O)C(C)(O)C(F)(F)F)c(Cl)c1)S(=O)(=O)c1ccccc1Cl` (stereo not drawn), for which the EC50 in data set [4] worked out at 8500 nM; in [1], 7500 nM; in [2], 1000 nM; in [3], 790 nM.
As for `CC(O)(C(=O)Nc1ccc(N(Cc2ccccc2)S(=O)(=O)c2ccccc2Cl)cc1Cl)C(F)(F)F` (stereo not drawn), the EC50 in data set [4] was above 30000 nM; in data set [1], above 30000 nM; in [2], above 100000 nM; in [3] it was 880 nM.
As to `COC(=O)CCc1ccc(S(=O)(=O)N(C)c2ccc(NC(=O)C(C)(O)C(F)(F)F)c(Cl)c2)cc1` (stereo not drawn), the EC50 in data set [4] was above 30000 nM; in data set [1], above 30000 nM; in data set [2] it was 3500 nM; in [3] it was 3500 nM.
On to `O=C(O)Cc1cccc(OCCCN(Cc2cccc(C(F)(F)F)c2Cl)CC(c2ccccc2)c2ccccc2)c1`, for which the concentration giving a half-maximal response (EC50) came to 310 nM in data set [4], 130 nM in data set [1], 280 nM in [2] and 78 nM in data set [3].
